Publication PMC10745882, “Investigation of Drug-Interaction Potential for Arthritis Dietary Supplements: Chondroitin Sulfate, Glucosamine, and Methylsulfonylmethane” (Molecules, 2023)

Assays:
[1] = design: method as in PMID 25417766; details: rats; 1:4 (paracetamol:GCS) ratio; cited from earlier work
CYP1A2 = target: T1, CYP1A2 (Homo sapiens, UniProt P05177); assay: CYP inhibition assay in human liver microsomes (LC-MS/MS cocktail), phenacetin to acetaminophen; type: in vitro ADME
T1 construct: Pooled human liver microsomes were purchased from BD Gentest; tissue BD Gentest; host or cells: pooled human liver microsomes
T1 sequence (P05177 1-516): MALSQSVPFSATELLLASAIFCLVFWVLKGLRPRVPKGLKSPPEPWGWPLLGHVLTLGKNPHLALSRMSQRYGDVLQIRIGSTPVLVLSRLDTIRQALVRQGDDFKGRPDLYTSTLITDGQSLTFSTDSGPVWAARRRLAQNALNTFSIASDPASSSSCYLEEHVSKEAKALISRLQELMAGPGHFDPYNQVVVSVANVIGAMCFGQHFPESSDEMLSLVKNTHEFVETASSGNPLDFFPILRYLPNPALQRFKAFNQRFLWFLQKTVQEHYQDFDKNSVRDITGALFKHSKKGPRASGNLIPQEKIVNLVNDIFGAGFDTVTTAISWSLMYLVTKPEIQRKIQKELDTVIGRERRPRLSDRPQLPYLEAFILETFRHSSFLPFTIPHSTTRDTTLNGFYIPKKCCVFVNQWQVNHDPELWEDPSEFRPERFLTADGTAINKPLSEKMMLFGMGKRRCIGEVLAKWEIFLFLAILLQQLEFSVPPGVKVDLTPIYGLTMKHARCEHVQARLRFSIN
Procedure: For the experimental method, the reference method was used. Briefly, incubation mixtures were composed of 0.5 mg/mL human liver microsomes; varying concentrations of CS in DW (0.1, 0.3, 1, 3, 10, 30, 100, and 200 µM) or MSM in DW (0.1, 0.3, 1, 3, 10, 30, 100, 300, and 1000 µM) or GCS in DMSO (0.1, 0.3, 1, 3, 10, 30, 100, 300, and 1000 µM); a substrate mixture in DMSO (40 µM phenacetin for CYP1A2; 2.5 µM coumarin for CYP2A6; 80 µM bupropion for CYP2B6; 10 µM diclofenac for CYP2C9; 80 µM [±]-mephenytoin for CYP2C19; 5 µM dextromethorphan for CYP2D6; 2.5 µM midazolam and 30 µM testosterone for CYP3A4); and an NADPH generating system (NGS; 0.1 M glucose-6-phosphate, 10 mg/mL β-NADP^+, and 1 U/mL glucose-6-phosphate dehydrogenase) in a total volume of 200 µL potassium phosphate buffer (0.1 M, pH 7.4). The reaction mixture, excluding NGS, underwent pre-incubation at 37 °C for 5 min, followed by further incubation with NGS for 30 min in a water bath. Well-established selective CYP inhibitors were employed as positive controls (40 µM ketoconazole for CYP3A4, 50 µM furafyllin for CYP1A2, 10 µM quinidine for CYP2D6, 125 µM ticlopidine for CYP2C19 and CYP2B6, 10 µM 8-methoxsalen for CYP2A6, and 10 µM sulfaphenazole for CYP2C9). Post incubation, the reaction was halted by adding 50 µL ice-cold 1% formic acid acetonitrile. After centrifugation at 13,200 rpm for 5 min, the supernatant was collected from the sample and subjected to analysis via an LC-MS/MS system. All experiments were performed in triplicate.
For the experimental method, the reference method was used. The LC-MS/MS system utilized in this study consisted of an Agilent 1260 binary pump HPLC system coupled with the Agilent 6460 Triple Quadrupole mass spectrometer (Agilent Technologies, Santa Clara, CA, USA), featuring an electrospray ionization source. Chromatographic separation was achieved using a Fortis C8 column (2.1 × 100 mm, 5.0 µm; Fortis Technologies Ltd., Neston, UK). The HPLC mobile phases comprised (A) 0.1% formic acid and (B) 0.1% formic acid in 90% acetonitrile. A gradient elution method was employed with an initial solvent B concentration of 15% and a flow rate of 0.25 mL/min. […] The total run time was 11.0 min, and the injection volume was 5 µL. Mass detection was conducted in the positive ion mode using multiple reaction monitoring (MRM). Specific MRM transitions for each analyte are detailed in Table S4.

CYP2E1 = test system: CYP2E1; design: method as in PMID 20408500; details: related report; cited from earlier work
CYP3A4(M) = target: T2, CYP3A4(M) (Homo sapiens, UniProt P08684); assay: CYP inhibition assay in human liver microsomes (LC-MS/MS cocktail), midazolam to 1-OH-midazolam; type: in vitro ADME
T2 construct: Pooled human liver microsomes were purchased from BD Gentest; tissue BD Gentest; host or cells: pooled human liver microsomes
T2 sequence (P08684 whole entry): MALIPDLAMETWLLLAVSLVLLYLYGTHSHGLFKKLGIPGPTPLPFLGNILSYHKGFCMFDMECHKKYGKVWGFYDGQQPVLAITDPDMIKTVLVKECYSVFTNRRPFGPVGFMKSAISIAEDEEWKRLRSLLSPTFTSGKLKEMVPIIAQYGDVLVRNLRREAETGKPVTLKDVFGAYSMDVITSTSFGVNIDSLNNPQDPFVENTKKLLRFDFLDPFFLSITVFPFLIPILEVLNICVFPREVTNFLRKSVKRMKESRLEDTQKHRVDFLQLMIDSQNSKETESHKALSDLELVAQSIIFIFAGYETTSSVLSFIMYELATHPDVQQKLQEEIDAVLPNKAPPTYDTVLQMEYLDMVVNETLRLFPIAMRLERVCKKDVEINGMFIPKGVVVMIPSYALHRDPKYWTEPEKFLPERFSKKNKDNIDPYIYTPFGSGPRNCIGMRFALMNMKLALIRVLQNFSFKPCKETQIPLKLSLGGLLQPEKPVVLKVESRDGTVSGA
Procedure: For the experimental method, the reference method was used. […] The reaction mixture, excluding NGS, underwent pre-incubation at 37 °C for 5 min, followed by further incubation with NGS for 30 min in a water bath. […] Post incubation, the reaction was halted by adding 50 µL ice-cold 1% formic acid acetonitrile. After centrifugation at 13,200 rpm for 5 min, the supernatant was collected from the sample and subjected to analysis via an LC-MS/MS system. All experiments were performed in triplicate.
For the experimental method, the reference method was used. […] The HPLC mobile phases comprised (A) 0.1% formic acid and (B) 0.1% formic acid in 90% acetonitrile. […] The total run time was 11.0 min, and the injection volume was 5 µL. Mass detection was conducted in the positive ion mode using multiple reaction monitoring (MRM). Specific MRM transitions for each analyte are detailed in Table S4.

Remaining Activities (% of Control, n = 3) (CYP1A2; test substance 0.3 μM): 110.2 ± 20.5 % of Control | Remaining Activities (% of Control, n = 3) (CYP1A2; test substance 1 μM): 103.1 ± 1.5 % of Control | Remaining Activities (% of Control, n = 3) (CYP1A2; test substance 3 μM): 101.1 ± 7.5 % of Control | Remaining Activities (% of Control, n = 3) (CYP1A2; test substance 10 μM): 94.2 ± 1.8 % of Control | Remaining Activities (% of Control, n = 3) (CYP1A2; test substance 30 μM): 94.1 ± 3.0 % of Control | Remaining Activities (% of Control, n = 3) (CYP1A2; test substance 100 μM): 97.2 ± 3.7 % of Control | Remaining Activities (% of Control, n = 3) (CYP1A2; test substance 300 μM): 86.7 ± 2.8 % of Control | Remaining Activities (% of Control, n = 3) (CYP1A2; test substance 1000 μM): 82.5 ± 12.0 % of Control | Remaining Activities (% of Control, n = 3) (CYP3A4(M); test substance 0.3 μM): 104.4 ± 13.5 % of Control | Remaining Activities (% of Control, n = 3) (CYP3A4(M); test substance 1 μM): 103.5 ± 3.2 % of Control | Remaining Activities (% of Control, n = 3) (CYP3A4(M); test substance 3 μM): 98.3 ± 1.9 % of Control | Remaining Activities (% of Control, n = 3) (CYP3A4(M); test substance 10 μM): 97.2 ± 1.5 % of Control | Remaining Activities (% of Control, n = 3) (CYP3A4(M); test substance 30 μM): 96.9 ± 6.1 % of Control | Remaining Activities (% of Control, n = 3) (CYP3A4(M); test substance 100 μM): 95.2 ± 8.2 % of Control | Remaining Activities (% of Control, n = 3) (CYP3A4(M); test substance 300 μM): 91.0 ± 3.3 % of Control | Remaining Activities (% of Control, n = 3) (CYP3A4(M); test substance 1000 μM): 88.7 ± 12.1 % of Control
Structure (SMILES): N[C@H]1C(O)O[C@H](CO)[C@@H](O)[C@@H]1O (stereo partly shown) [GCS, glucosamine]
paracetamol's AUC when co-administered with GCS [1]: increase | paracetamol's maximum plasma concentration when co-administered with GCS [1]: increase | inhibitory effect on CYP2E1 (CYP2E1): no inhibitory effect
